Test results as given in ChEMBL document CHEMBL1153327, “M3 muscarinic acetylcholine receptor antagonists: SAR and optimization of bi-aryl amines” (Bioorg Med Chem Lett, 2009).
Activity calls are given as the source filed them. No cut-off for these calls is given here.

Tested on: not listed separately
Experiment: Permeability across artificial phospholipid membrane at pH 7.05 by HPLC
Format: ADME
Settings: not told, read-out: permeability

Row | Papp | Compound
1 | < 0.3 ×10⁻⁶ cm/s | C[C@H]1CN(Cc2cccc(-c3cc(CNC(=O)c4cccc(CN5CC[N+](C)(C)CC5)c4)ccc3F)c2)CCN1.[I-]

Target: T1, Muscarinic acetylcholine receptor M1 (Homo sapiens, UniProt P11229)
T1 sequence (P11229 whole entry): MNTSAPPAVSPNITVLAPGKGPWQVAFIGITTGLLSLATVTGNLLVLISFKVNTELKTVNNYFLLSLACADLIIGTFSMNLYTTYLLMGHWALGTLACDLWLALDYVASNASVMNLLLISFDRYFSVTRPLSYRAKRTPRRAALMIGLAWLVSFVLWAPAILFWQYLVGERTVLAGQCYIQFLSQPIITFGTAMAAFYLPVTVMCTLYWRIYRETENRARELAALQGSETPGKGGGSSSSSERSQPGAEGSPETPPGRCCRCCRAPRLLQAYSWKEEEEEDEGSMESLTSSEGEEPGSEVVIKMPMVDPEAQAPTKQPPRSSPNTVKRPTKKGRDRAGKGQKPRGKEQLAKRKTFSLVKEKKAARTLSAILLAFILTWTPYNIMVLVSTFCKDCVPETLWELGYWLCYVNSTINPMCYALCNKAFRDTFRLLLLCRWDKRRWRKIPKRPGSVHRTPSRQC
Experiment: Antagonist activity at human recombinant muscarinic M1 receptor expressed in CHO cells assessed as inhibition of acetylcholine-induced calcium mobilization by FLIPR assay
Format: functional, cell-based
Settings: read-out: pA2 (converted)

Row | Kb | Compound
2 | 0.2 nM | C[C@H]1CN(Cc2cccc(-c3cc(CNC(=O)c4cccc(CC5CCNCC5)c4)ccc3F)c2)CCN1

Target: T2, Muscarinic acetylcholine receptor M3 (Homo sapiens, UniProt P20309)
Experiment: Antagonist activity at human recombinant muscarinic M3 receptor expressed in CHO cells assessed as inhibition of acetylcholine-induced calcium mobilization by FLIPR assay
Format: functional, cell-based
Settings: not given

T2 sequence (P20309 whole entry): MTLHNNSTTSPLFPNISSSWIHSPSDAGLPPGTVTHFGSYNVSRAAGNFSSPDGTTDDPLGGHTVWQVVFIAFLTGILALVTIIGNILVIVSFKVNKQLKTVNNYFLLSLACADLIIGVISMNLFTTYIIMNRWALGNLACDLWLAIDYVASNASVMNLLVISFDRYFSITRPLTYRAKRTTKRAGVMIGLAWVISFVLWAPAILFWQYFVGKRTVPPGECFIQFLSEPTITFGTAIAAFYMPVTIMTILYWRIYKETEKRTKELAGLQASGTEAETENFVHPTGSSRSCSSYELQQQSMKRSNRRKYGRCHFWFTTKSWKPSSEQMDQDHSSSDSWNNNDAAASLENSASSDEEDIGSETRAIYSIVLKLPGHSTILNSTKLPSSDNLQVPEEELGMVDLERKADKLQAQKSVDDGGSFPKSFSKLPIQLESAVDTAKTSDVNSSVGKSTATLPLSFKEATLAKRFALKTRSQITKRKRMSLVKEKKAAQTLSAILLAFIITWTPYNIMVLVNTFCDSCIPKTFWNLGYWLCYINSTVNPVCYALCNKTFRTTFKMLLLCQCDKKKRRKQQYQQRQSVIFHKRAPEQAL

Row | Compound | IC50
3 | O=C1CN(Cc2cccc(-c3cccc(CNC(=O)c4ccc5c(c4)OCO5)c3)c2)CCN1 | > 10000 nM
4 | Cc1ccc(-c2cccc(CN3CCNCC3)c2)cc1CNC(=O)c1ccc2c(c1)OCO2 | 3160 nM
5 | O=C(Nc1cccc(-c2cccc(CN3CCNCC3)c2)c1)c1ccc2c(c1)OCO2 | 6310 nM
6 | COc1ccc(CN2CCNCC2)cc1-c1cccc(CNC(=O)c2ccc3c(c2)OCO3)c1 | 1260 nM
7 | C[N+]1(C)CCN(Cc2cccc(-c3cccc(CNC(=O)c4ccc5c(c4)OCO5)c3)c2)CC1 | 2510 nM
8 | Nc1cccc(C(=O)NCc2cccc(-c3cccc(CN4CCNCC4)c3)c2)c1 | 2000 nM
9 | O=C(NCc1cccc(-c2cccc(CN3CCNCC3)c2)c1F)c1ccc2c(c1)OCO2 | 2510 nM
10 | Cc1c(CNC(=O)c2ccc3c(c2)OCO3)cccc1-c1cccc(CN2CCNCC2)c1 | > 10000 nM
11 | O=C(NCc1cccc(-c2cccc(CN3CCNCC3)c2)c1)c1ccccc1Cl | 1000 nM
12 | O=C(NCc1cccc(-c2cccc(CN3CCNCC3)c2)c1)Nc1ccc2c(c1)OCO2 | 7940 nM
13 | O=C(NCc1cccc(-c2cccc(CN3CCNCC3)c2)c1)c1cccc(O)c1 | 2000 nM
14 | O=C(NCc1cccc(-c2cccc(CN3CCNCC3)c2)c1)c1cccc(Oc2ccccc2)c1 | 1260 nM
15 | O=C(NCc1cccc(-c2cccc(CN3CCNCC3)c2)c1)c1cccc(F)c1 | 794 nM
16 | O=C(NCc1cccc(-c2cccc(CN3CCOCC3)c2)c1)c1ccc2c(c1)OCO2 | > 10000 nM
17 | O=C(NCc1cccc(-c2cccc(CN3CCCCC3)c2)c1)c1ccc2c(c1)OCO2 | 6310 nM
18 | O=C(NCc1cccc(-c2cccc(CN3CCNCC3)c2)c1)c1ccccc1C(F)(F)F | 3980 nM
19 | CC(=O)N1CCN(Cc2cccc(-c3cccc(CNC(=O)c4ccc5c(c4)OCO5)c3)c2)CC1 | 3980 nM
20 | O=C(NCc1cccc(-c2cccc(C(=O)N3CCNCC3)c2)c1)c1ccc2c(c1)OCO2 | 5010 nM
21 | C[N+]1(Cc2cccc(-c3cccc(CNC(=O)c4ccc5c(c4)OCO5)c3)c2)CCNCC1 | > 10000 nM
22 | CCN1CCN(Cc2cccc(-c3cccc(CNC(=O)c4ccc5c(c4)OCO5)c3)c2)CC1 | 1580 nM

Second part, the compound after the results:

Row | IC50 | Compound
23 | 631 nM | O=C(NCc1cccc(-c2cccc(CN3CCNCC3)c2)c1)c1ccc(C(F)(F)F)cc1
24 | 631 nM | CN1CCCN(Cc2cccc(-c3cccc(CNC(=O)c4ccc5c(c4)OCO5)c3)c2)CC1
25 | 501 nM | O=C(NCc1cccc(-c2cccc(CN3CCNCC3)c2)c1)c1cccc(OC(F)(F)F)c1
26 | 501 nM | COc1ccccc1C(=O)NCc1cccc(-c2cccc(CN3CCNCC3)c2)c1
27 | 501 nM | COc1ccc(C(=O)NCc2cccc(-c3cccc(CN4CCNCC4)c3)c2)cc1
28 | 501 nM | CN1CCN(Cc2cccc(-c3cccc(CNC(=O)c4ccc5c(c4)OCO5)c3)c2)CC1
29 | 501 nM | C[C@H]1CN(Cc2ccc(-c3cccc(CNC(=O)c4ccc5c(c4)OCO5)c3)s2)CCN1
30 | 316 nM | CCc1cccc(C(=O)NCc2cccc(-c3cccc(CN4CCNCC4)c3)c2)c1
31 | 316 nM | COc1ccc(-c2cccc(CNC(=O)c3ccc4c(c3)OCO4)c2)cc1CN1CCNCC1
32 | 316 nM | N#Cc1ccccc1C(=O)NCc1cccc(-c2cccc(CN3CCNCC3)c2)c1
33 | 316 nM | O=C(NCc1cccc(-c2cccc(CN3CCNCC3)c2)c1)c1ccc(Cl)cc1
34 | 316 nM | O=C(NCc1cccc(-c2cccc(CN3CCCNCC3)c2)c1)c1ccc2c(c1)OCO2
35 | 251 nM | O=C(NCc1cc(-c2cccc(CN3CCNCC3)c2)ccc1F)c1ccc2c(c1)OCO2
36 | 251 nM | Cc1cccc(C(=O)NCc2cccc(-c3cccc(CN4CCNCC4)c3)c2)c1
37 | 251 nM | O=S(=O)(NCc1cccc(-c2cccc(CN3CCNCC3)c2)c1)c1ccc2c(c1)OCO2
38 | 200 nM | O=C(NCc1cccc(-c2ccc(F)c(CN3CCNCC3)c2)c1)c1ccc2c(c1)OCO2
39 | 200 nM | CC(=O)Nc1cccc(C(=O)NCc2cccc(-c3cccc(CN4CCNCC4)c3)c2)c1
40 | 200 nM | CN(C)c1cccc(C(=O)NCc2cccc(-c3cccc(CN4CCNCC4)c3)c2)c1

Row | IC50 | Compound
41 | 100 nM | O=C(NCc1cccc(-c2cccc(CN3CCNCC3)c2)c1)c1cccc(Cl)c1
42 | 79.4 nM | O=C(NCc1cccc(-c2cccc(CN3C[C@@H]4C[C@H]3CN4)c2)c1)c1ccc2c(c1)OCO2
43 | 79.4 nM | COc1cccc(C(=O)NCc2cccc(-c3cccc(CN4CCNCC4)c3)c2)c1
44 | 79.4 nM | N#Cc1ccc(C(=O)NCc2cccc(-c3cccc(CN4CCNCC4)c3)c2)cc1
45 | 50.1 nM | C[C@@H]1CN(Cc2cccc(-c3cccc(CNC(=O)c4ccc5c(c4)OCO5)c3)c2)CCN1
46 | 50.1 nM | N#Cc1cccc(C(=O)NCc2cccc(-c3cccc(CN4CCNCC4)c3)c2)c1
47 | 50.1 nM | O=C(NCc1cccc(-c2cccc(CN3CCNCC3)c2)c1)c1cccc(C(F)(F)F)c1
48 | 39.8 nM | C[C@H]1CN(Cc2cccc(-c3cccc(CNC(=O)c4ccc5c(c4)OCO5)c3)n2)CCN1
49 | 31.6 nM | COc1ccc(CNC(=O)c2ccc3c(c2)OCO3)cc1-c1cccc(CN2CCNCC2)c1
50 | 20 nM | CS(=O)(=O)c1cccc(C(=O)NCc2cccc(-c3cccc(CN4CCNCC4)c3)c2)c1
51 | 20 nM | COC(=O)c1cccc(C(=O)NCc2cccc(-c3cccc(CN4CCNCC4)c3)c2)c1
52 | 10 nM | CCOc1cccc(C(=O)NCc2cccc(-c3cccc(CN4CCNCC4)c3)c2)c1
53 | 10 nM | CC(=O)c1cccc(C(=O)NCc2cccc(-c3cccc(CN4CCNCC4)c3)c2)c1
54 | 10 nM | CC1CN(Cc2cccc(-c3cccc(CNC(=O)c4ccc5c(c4)OCO5)c3)c2)CCN1 (stereo unspecified)
55 | 6.31 nM | O=C(NCc1ccc(F)c(-c2cccc(CN3CCNCC3)c2)c1)c1ccc2c(c1)OCO2
56 | 5.01 nM | C[C@H]1CN(Cc2cccc(-c3cccc(CNC(=O)c4ccc5c(c4)OCO5)c3)c2)CCN1
57 | 3.98 nM | CN1CCN(Cc2cccc(C(=O)NCc3cccc(-c4cccc(CN5CCNCC5)c4)c3)c2)CC1

Tested on: Mus musculus
Experiment: Inhibition of methacholine-induced bronchoconstriction in intranasally dosed BALB/c mouse assessed as enhanced pause pretreated before methacholine challenge
Format: functional, organism-based
Settings: not given

Row | Compound | inhibition
58 | C[C@H]1CN(Cc2cccc(-c3cc(CNC(=O)c4cccc(CC5CCNCC5)c4)ccc3F)c2)CCN1 | Active

Target: T2, Muscarinic acetylcholine receptor M3
Experiment: Antagonist activity at human recombinant muscarinic M3 receptor expressed in CHO cells assessed as inhibition of acetylcholine-induced calcium mobilization by FLIPR based single concentration kinetic assay
Format: functional, cell-based
Settings: read-out: pA2 (converted)

Row | Kb | Compound
59 | 3.16 nM | C[C@H]1CN(Cc2cccc(-c3cc(CNC(=O)c4cccc(CN(C)C)c4)ccc3F)c2)CCN1
60 | 0.0316 nM | C[C@H]1CN(Cc2cccc(-c3cc(CNC(=O)c4cccc(CN5CCN(C)CC5)c4)ccc3F)c2)CCN1
61 | 0.126 nM | C[C@H]1CN(Cc2cccc(-c3cc(CNC(=O)c4cccc(CN5CCOCC5)c4)ccc3F)c2)CCN1
62 | 0.251 nM | C[C@H]1CN(Cc2cccc(-c3cc(CNC(=O)c4cccc(CN5CCCN(C)CC5)c4)ccc3F)c2)CCN1
63 | 0.2 nM | C[C@H]1CN(Cc2cccc(-c3cc(CNC(=O)c4cccc(CN(C)CCCN(C)C)c4)ccc3F)c2)CCN1
64 | 0.126 nM | C[C@H]1CN(Cc2cccc(-c3cc(CNC(=O)c4cccc(CN5CC[N+]6(CCCCC6)CC5)c4)ccc3F)c2)CCN1
65 | 0.0794 nM | C[C@H]1CN(Cc2cccc(-c3cc(CNC(=O)c4cccc(CN5CC[N+](C)(Cc6ccccc6)CC5)c4)ccc3F)c2)CCN1
66 | 0.1 nM | CCC[N+]1(C)CCN(Cc2cccc(C(=O)NCc3ccc(F)c(-c4cccc(CN5CCN[C@@H](C)C5)c4)c3)c2)CC1
67 | 0.158 nM | C[C@H]1CN(Cc2cccc(-c3cc(CNC(=O)c4cccc(CN5CC[N+](C)(C)CC5)c4)ccc3F)c2)CCN1.[I-]
68 | 0.631 nM | C[C@H]1CN(Cc2cccc(-c3cc(CNC(=O)c4cccc(CN5CCCCC5)c4)ccc3F)c2)CCN1
69 | 0.0631 nM | C[C@H]1CN(Cc2cccc(-c3cc(CNC(=O)c4cccc(CN5CCN(CCCO)CC5)c4)ccc3F)c2)CCN1
70 | 3.16 nM | C[C@H]1CN(Cc2cccc(-c3cc(CNC(=O)c4cccc(C[N+]5(C)CCNCC5)c4)ccc3F)c2)CCN1
71 | 0.0794 nM | C[C@H]1CN(Cc2cccc(-c3cc(CNC(=O)c4cccc(CN5CCN(C=O)CC5)c4)ccc3F)c2)CCN1
